According to patent publication US20230265094A1, “RIPK1 INHIBITORS AND METHODS OF USE” (Merck Sharp & Dohme LLC, priority 2020, published 2023):
Where a name gives a salt, the structure may show the parent alone.

target: T1, RIPK1 (Homo sapiens, UniProt Q13546); assay: RIPK1-ADP-Glo enzymatic assay; format: biochemical; details: ADP-Glo luminescent ADP detection; 25 nM GST-RIPK1 kinase domain (residues 1-327), 300 μM ATP, dephosphorylated-MBP substrate; 30 min pre-incubation, 150 min reaction
T1 construct: recombinant GST-RIPK1 kinase domain (residues 1-327) enzyme produced from baculovirus-transfected Sf21 cells; host or cells: baculovirus-transfected Sf21 insect cells
T1 sequence (Q13546 1-327): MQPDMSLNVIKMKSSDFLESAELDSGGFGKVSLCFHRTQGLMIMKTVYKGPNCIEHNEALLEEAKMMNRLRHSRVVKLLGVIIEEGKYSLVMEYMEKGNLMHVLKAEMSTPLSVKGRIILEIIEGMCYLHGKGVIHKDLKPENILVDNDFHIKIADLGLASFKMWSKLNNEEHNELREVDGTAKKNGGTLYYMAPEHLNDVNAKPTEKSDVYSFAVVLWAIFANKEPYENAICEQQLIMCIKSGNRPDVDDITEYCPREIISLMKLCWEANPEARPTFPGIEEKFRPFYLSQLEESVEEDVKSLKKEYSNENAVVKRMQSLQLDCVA
Experimental: RIPK1-ADP-Glo Enzymatic Assay
The enzymatic activity of RIPK1 is measured using an assay derived from ADP-Glo kit (Promega™), which provides a luminescent-based ADP detection system. Specifically, the ADP generated by RIPK1 kinase is proportionally detected as luminescent signals in a homogenous fashion. In this context, the assessment of the inhibitory effect of small molecules (EC50) is measured by the effectiveness of the compounds to inhibit the ATP to ADP conversion by RIPK1.
In this assay, the potency (EC50) of each compound was determined from a ten-point (1:3 serial dilution; top compound concentration of 100000 nM) titration curve using the following outlined procedure. To each well of a white ProxiPlus 384 well-plate, 30 nL of compound (1% DMSO in final assay volume of 3 μL) was dispensed, followed by the addition of 2 μL of 1×assay buffer (25 mM Hepes 7.3, 20 mM MgCl2, 50 mM NaCl, 1 mM DTT, 0.005% Tween20, and 0.02% BSA) containing 37.5 nM of GST-RIPK1 (recombinant GST-RIPK1 kinase domain (residues 1-327) enzyme produced from baculovirus-transfected Sf21 cells: MW=62 kDa). Plates were placed in an ambient temperature humidified chamber for a 30 minutes pre-incubation with compound. Subsequently, each reaction was initiated by the addition of 1 μL 1×assay buffer containing 900 μM ATP and […] dephosphorylated-MBP substrate. The final reaction in each well of 3 μL consists of 25 nM of GST-RIPK1, 300 μM ATP, and 3 μM dephosphorylated-MBP. Kinase reactions were allowed to proceed for 150 minutes prior to adding ADP-Glo reagents per Promega's outlined kit protocol. Dose-response curves were generated by plotting percent effect (% product conversion; Y-axis) vs. Log10 compound concentrations (X-axis). EC50 values were calculated using a non-linear regression, four-parameters sigmoidal dose-response model.

| SMILES | EC50 [nM] |
| --- | --- |
| N#Cc1cc(OC2CN(C(=O)N3N=CCC3c3cc(F)cc(F)c3)C2)ncn1 (racemic) [Example 1.5, (R and S)-6-((1-(5-(3,5-difluorophenyl)-4,5-dihydro-1H-pyrazole-1-carbonyl)azetidin-3-yl)oxy)pyrimidine-4-carbonitrile, TFA salt] | 140 |
| O=C(N1CCC1c1ccccc1F)N1N=CC[C@H]1c1cc(F)cc(F)c1 (mixture of isomers) [Example 1.21, ((S)-5-(3,5-difluorophenyl)-4,5-dihydro-1H-pyrazol-1-yl)((R and S)-2-(2-fluorophenyl)azetidin-1-yl)methanone] | 27.6 |
| COC(=O)C1CC12CN(C(=O)N1N=CC[C@H]1c1cc(F)cc(F)c1)C2 (mixture of isomers) [Example 1.47, methyl (R and S)-5-((S)-5-(3,5-difluorophenyl)-4,5-dihydro-1H-pyrazole-1-carbonyl)-5-azaspiro[2.3]hexane-1-carboxylate] | 195 |
| N#Cc1cc(OC2CN(C(=O)N3N=CC[C@H]3c3cc(F)cc(F)c3)C2)ncn1 (single isomer, unassigned) [Example 1.6] | 83 |
| O=C(N1CC(Oc2ccccc2)C1)N1N=CC[C@@H]1c1ccccc1 (single isomer, unassigned) [Example 2.4] | 5000 |
| O=C(N1CC(Oc2ccccc2)C1)N1N=CC[C@H]1c1ccccc1 (single isomer, unassigned) [Example 2.5] | 0.5 |
| CC1(Oc2ccc(F)cc2)CN(C(=O)N2N=CC[C@H]2c2cncc(F)c2)C1 (single isomer, unassigned) [Example 2.31] | 17.1 |
| Cc1ncc([C@@H]2CC=NN2C(=O)N2CC(Oc3ccc(F)cc3)C2)cc1F (single isomer, unassigned) [Example 2.40] | 14.7 |
| O=C(N1CC(OC2CCCC2)C1)N1N=CC[C@H]1c1cc(F)cc(F)c1 [Example 1.17, (S)-(3-(cyclopentyloxy)azetidin-1-yl)(5-(3,5-difluorophenyl)-4,5-dihydro-1H-pyrazol-1-yl)methanone, TFA salt] | 11.5 |
| O=C(N1CC2(C1)CN(c1ccccn1)C2)N1N=CC[C@H]1c1cc(F)cc(F)c1 [Example 1.19, (S)-(5-(3,5-difluorophenyl)-4,5-dihydro-1H-pyrazol-1-yl)(6-(pyridin-2-yl)-2,6-diazaspiro[3.3]heptan-2-yl)methanone, TFA salt] | 3450 |
| CS(=O)(=O)N1CCC2(CC1)CN(C(=O)N1N=CC[C@H]1c1cc(F)cc(F)c1)C2 [Example 1.20, (S)-(5-(3,5-difluorophenyl)-4,5-dihydro-1H-pyrazol-1-yl)(7-(methylsulfonyl)-2,7-diazaspiro[3.5]nonan-2-yl)methanone] | 1320 |
| CC(C)OC1CN(C(=O)N2N=CC[C@H]2c2cc(F)cc(F)c2)C1 [Example 1.24, (S)-(5-(3,5-difluorophenyl)-4,5-dihydro-1H-pyrazol-1-yl)(3-isopropoxyazetidin-1-yl)methanone] | 29.9 |

Now from value to compound:

| EC50 [nM] | SMILES |
| --- | --- |
| 9.7 | CC1(Oc2ccccc2)CN(C(=O)N2N=CCC2c2cc(F)cc(F)c2)C1 (racemic) [Example 1.2, (R and S)-(5-(3,5-difluorophenyl)-4,5-dihydro-1H-pyrazol-1-yl)(3-methyl-3-phenoxyazetidin-1-yl)methanone, TFA salt] |
| 11.8 | C[C@@H]1[C@H](Oc2ccccc2)CN1C(=O)N1N=CC[C@H]1c1cc(F)cc(F)c1 (racemic) [Example 1.11, ((S)-5-(3,5-difluorophenyl)-4,5-dihydro-1H-pyrazol-1-yl)((2R,3R and 2S,3S)-2-methyl-3-phenoxyazetidin-1-yl)methanone, TFA salt] |
| 73.6 | O=C(N1CCC1Cc1ccccc1)N1N=CC[C@H]1c1cc(F)cc(F)c1 (mixture of isomers) [Example 1.22, ((S)-2-benzylazetidin-1-yl)((R and S)-5-(3,5-difluorophenyl)-4,5-dihydro-1H-pyrazol-1-yl)methanone] |
| 104 | C[C@H]1[C@H](Oc2ccccc2)CN1C(=O)N1N=CC[C@H]1c1cc(F)cc(F)c1 (single isomer, unassigned) [Example 1.9, ((S)-5-(3,5-difluorophenyl)-4,5-dihydro-1H-pyrazol-1-yl)((2S,3R or 2R,3S)-2-methyl-3-phenoxyazetidin-1-yl)methanone, TFA salt] |
| 10.5 | C[C@@H]1[C@@H](Oc2ccccc2)CN1C(=O)N1N=CC[C@H]1c1cc(F)cc(F)c1 (single isomer, unassigned) [Example 1.10, ((S)-5-(3,5-difluorophenyl)-4,5-dihydro-1H-pyrazol-1-yl)((2R,3S or 2S,3R)-2-methyl-3-phenoxyazetidin-1-yl)methanone, TFA salt] |
| 8.8 | C[C@@H]1[C@H](Oc2ccccc2)CN1C(=O)N1N=CC[C@H]1c1cc(F)cc(F)c1 (single isomer, unassigned) [Example 1.12, ((S)-5-(3,5-difluorophenyl)-4,5-dihydro-1H-pyrazol-1-yl)((2R,3R or 2S,3S)-2-methyl-3-phenoxyazetidin-1-yl)methanone, TFA salt] |
| 7.6 | C[C@H]1[C@@H](Oc2ccccc2)CN1C(=O)N1N=CC[C@H]1c1cc(F)cc(F)c1 (single isomer, unassigned) [Example 1.13, ((S)-5-(3,5-difluorophenyl)-4,5-dihydro-1H-pyrazol-1-yl)((2S,3S or 2R,3R)-2-methyl-3-phenoxyazetidin-1-yl)methanone, TFA salt] |
| 18.6 | CC(c1ccccc1)C1CN(C(=O)N2N=CC[C@H]2c2cc(F)cc(F)c2)C1 (single isomer, unassigned) [Example 2.42, ((S)-5-(3,5-difluorophenyl)-4,5-dihydro-1H-pyrazol-1-yl)(3-((R or S)-1-phenylethyl)azetidin-1-yl)methanone] |
| 46.7 | CC(c1ccccc1)C1CN(C(=O)N2N=CC[C@H]2c2cc(F)cc(F)c2)C1 (single isomer, unassigned) [Example 2.43, ((S)-5-(3,5-difluorophenyl)-4,5-dihydro-1H-pyrazol-1-yl)(3-((S or R)-1-phenylethyl)azetidin-1-yl)methanone] |
| 2.5 | CC1(Oc2ccccc2)CN(C(=O)N2N=CC[C@H]2c2cc(F)cc(F)c2)C1 [Example 1.1, (S)-(5-(3,5-difluorophenyl)-4,5-dihydro-1H-pyrazol-1-yl)(3-methyl-3-phenoxyazetidin-1-yl)methanone, TFA salt] |
| 600 | O=C(N1CC(Oc2ccccc2)C1)N1N=CC[C@@H]1c1cc(F)cc(F)c1 [Example 1.4, (R)-(5-(3,5-difluorophenyl)-4,5-dihydro-1H-pyrazol-1-yl)(3-phenoxyazetidin-1-yl)methanone, TFA salt] |
| 12.8 | O=C(N1CC(Oc2cccnc2)C1)N1N=CC[C@H]1c1cc(F)cc(F)c1 [Example 1.7, (S)-(5-(3,5-difluorophenyl)-4,5-dihydro-1H-pyrazol-1-yl)(3-(pyridin-3-yloxy)azetidin-1-yl)methanone, TFA salt] |
| 8.7 | O=C(N1CC(Oc2ccncc2)C1)N1N=CC[C@H]1c1cc(F)cc(F)c1 [Example 1.8, (S)-(5-(3,5-difluorophenyl)-4,5-dihydro-1H-pyrazol-1-yl)(3-(pyridin-4-yloxy)azetidin-1-yl)methanone, TFA salt] |
| 6.1 | O=C(N1CC(Cc2ccccc2)C1)N1N=CC[C@H]1c1cc(F)cc(F)c1 [Example 1.14, (S)-(3-benzylazetidin-1-yl)(5-(3,5-difluorophenyl)-4,5-dihydro-1H-pyrazol-1-yl)methanone, TFA salt] |
| 3680 | O=C(N1CC(O)C1)N1N=CC[C@H]1c1cc(F)cc(F)c1 [Example 1.15, (S)-(5-(3,5-difluorophenyl)-4,5-dihydro-1H-pyrazol-1-yl)(3-hydroxyazetidin-1-yl)methanone] |
| 325 | O=C(N1CC(c2ncccn2)C1)N1N=CC[C@H]1c1cc(F)cc(F)c1 [Example 1.18, (S)-(5-(3,5-difluorophenyl)-4,5-dihydro-1H-pyrazol-1-yl)(3-(pyrimidin-2-yl)azetidin-1-yl)methanone] |
| 11.8 | O=C(N1CC(OCc2ccccc2)C1)N1N=CC[C@H]1c1cc(F)cc(F)c1 [Example 1.25, (S)-(3-(benzyloxy)azetidin-1-yl)(5-(3,5-difluorophenyl)-4,5-dihydro-1H-pyrazol-1-yl)methanone] |
